Measurements as given in ChEMBL document CHEMBL5223081 (J Med Chem, 2021).
Each block holds one compound with its values, some of them ahead of it.

Experiments:
Adenosine receptor A3 = molecular target: T1, Adenosine receptor A3 (Homo sapiens, UniProt P0DMS8); assay: Binding affinity to human A3 adenosine receptor assessed as inhibition constant
T1 sequence (P0DMS8 whole entry): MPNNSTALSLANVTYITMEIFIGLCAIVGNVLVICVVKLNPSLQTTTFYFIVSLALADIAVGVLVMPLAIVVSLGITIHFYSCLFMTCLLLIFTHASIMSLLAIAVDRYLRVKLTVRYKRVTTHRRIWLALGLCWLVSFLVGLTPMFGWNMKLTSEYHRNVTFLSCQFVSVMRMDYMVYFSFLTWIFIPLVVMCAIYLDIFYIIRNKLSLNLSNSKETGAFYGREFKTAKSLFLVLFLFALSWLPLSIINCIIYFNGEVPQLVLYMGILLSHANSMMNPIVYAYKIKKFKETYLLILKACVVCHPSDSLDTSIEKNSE

[1] = Inhibition of human PDE5 derived from platelets by scintillation counter analysis
[2] = Aqueous solubility of compound; format: physicochemical
[3] = Inhibition of PDE2 derived from bovine heart by scintillation counter analysis; set-up: species or system Bos taurus
Homo sapiens [4] = species on record: Homo sapiens; assay: Selectivity index, ratio of Ki for human A2A receptor to Ki for human A3 receptor assessed as fold change
Homo sapiens [5] = species on record: Homo sapiens; assay: Selectivity index, ratio of Ki for human A1 receptor to Ki for human A3 receptor assessed as fold change
Homo sapiens [6] = species on record: Homo sapiens; assay: Selectivity index, ratio of Ki for human A2 receptor to Ki for A1 receptor assessed as fold change
Homo sapiens [7] = species on record: Homo sapiens; assay: Selectivity index, ratio of antagonist activity at A1 receptor to antagonist activity at A2 receptor
[8] = molecular target: T2, Palmitoleoyl-protein carboxylesterase NOTUM (Homo sapiens, UniProt Q6P988); assay: Inhibition of notum (unknown origin)
T2 sequence (Q6P988 whole entry): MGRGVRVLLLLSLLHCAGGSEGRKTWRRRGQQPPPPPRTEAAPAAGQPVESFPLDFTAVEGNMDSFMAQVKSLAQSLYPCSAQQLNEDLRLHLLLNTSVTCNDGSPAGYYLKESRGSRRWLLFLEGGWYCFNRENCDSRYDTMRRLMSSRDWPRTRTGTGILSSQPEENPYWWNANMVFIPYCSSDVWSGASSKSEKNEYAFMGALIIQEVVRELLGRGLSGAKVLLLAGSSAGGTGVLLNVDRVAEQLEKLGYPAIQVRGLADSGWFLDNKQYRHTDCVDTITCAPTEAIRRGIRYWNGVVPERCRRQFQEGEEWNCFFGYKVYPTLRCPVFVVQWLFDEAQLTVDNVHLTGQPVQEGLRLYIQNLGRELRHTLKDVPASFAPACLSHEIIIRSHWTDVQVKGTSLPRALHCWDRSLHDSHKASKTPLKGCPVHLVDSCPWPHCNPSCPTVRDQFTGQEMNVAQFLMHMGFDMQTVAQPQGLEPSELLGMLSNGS

[9] = Inhibition of Glycogen phosphorylase (unknown origin); set-up: species or system Homo sapiens
[10] = Inhibition of phosphodiesterase (unknown origin); set-up: species or system Homo sapiens
[11] = Inhibition of ryanodine receptor (unknown origin); set-up: species or system Homo sapiens
[12] = Inhibition of bile export protein (unknown origin); set-up: species or system Homo sapiens
[13] = molecular target: GABA-A receptor; anion channel; assay: Inhibition of GABAA receptors (unknown origin); format: protein-complex assay, Homo sapiens
Guanine deaminase = molecular target: T3, Guanine deaminase (Homo sapiens, UniProt Q9Y2T3); assay: Inhibition of guanine deaminase (unknown origin)
T3 sequence (Q9Y2T3 whole entry): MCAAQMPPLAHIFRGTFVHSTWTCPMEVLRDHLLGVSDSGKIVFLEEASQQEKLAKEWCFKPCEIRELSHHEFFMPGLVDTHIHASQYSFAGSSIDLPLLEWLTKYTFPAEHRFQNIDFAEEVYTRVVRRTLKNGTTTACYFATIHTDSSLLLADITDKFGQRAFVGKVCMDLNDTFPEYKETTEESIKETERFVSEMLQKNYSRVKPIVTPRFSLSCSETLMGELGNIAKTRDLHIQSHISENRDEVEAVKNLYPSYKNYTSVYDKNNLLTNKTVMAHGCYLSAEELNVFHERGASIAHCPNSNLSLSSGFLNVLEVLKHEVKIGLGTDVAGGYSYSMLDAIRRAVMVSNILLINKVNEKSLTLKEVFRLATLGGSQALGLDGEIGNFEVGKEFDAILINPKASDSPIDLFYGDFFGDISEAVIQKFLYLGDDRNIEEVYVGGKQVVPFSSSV

[14] = Inhibition of PI3-kinase (unknown origin); set-up: species or system Homo sapiens
[15] = molecular target: Nuclear receptor subfamily 2 group E member 1 (Homo sapiens, UniProt Q9Y466); assay: Inhibition of tlx (unknown origin)
Nuclear receptor subfamily 2 group E member 1, sequence (Q9Y466 whole entry): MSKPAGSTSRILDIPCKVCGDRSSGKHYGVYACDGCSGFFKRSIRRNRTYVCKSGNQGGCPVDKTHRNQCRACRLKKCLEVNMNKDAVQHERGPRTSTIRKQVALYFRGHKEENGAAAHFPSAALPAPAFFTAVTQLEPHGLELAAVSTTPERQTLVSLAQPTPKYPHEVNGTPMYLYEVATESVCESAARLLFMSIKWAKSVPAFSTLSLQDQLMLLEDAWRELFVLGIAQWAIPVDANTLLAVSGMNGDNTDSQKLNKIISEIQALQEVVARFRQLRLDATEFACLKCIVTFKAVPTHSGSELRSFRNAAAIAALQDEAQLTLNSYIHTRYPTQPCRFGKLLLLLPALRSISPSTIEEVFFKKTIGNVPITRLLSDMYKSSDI

[16] = Inhibition of human glycogen phosphorylase
[17] = Inhibition of human glycogen phosphorylase in presence of 0.2 mM of AMP

SMILES: CC[C@@H]1CN2C(=O)N(C)c3nc(-c4cc(Cl)cc(Cl)c4Cl)[nH]c3C2=N1
Ki (Adenosine receptor A3): 0.000433 µM

SMILES: CCCc1nn(C)c2c(=O)[nH]c(-c3cc(S(=O)(=O)N4CCN(C)CC4)ccc3OCC)nc12
IC50 [1]: 0.01 µM

SMILES: CCCn1c(=O)c2c(nc(/C=C/c3ccc(OC)c(OC)c3)n2C)n(CCC)c1=O
solubility [2]: < 10 µg/mL

SMILES: COc1ccc(Cc2nc(O)c3c(C)nc([C@@H](CCCc4ccccc4)[C@@H](C)O)n3n2)cc1OC
IC50 [3]: 0.0047 µM

SMILES: CCCn1c(=O)c2nc(-c3ccc(OCC(N)=O)cc3O)[nH]c2n(CCC)c1=O
Ratio Ki (Homo sapiens [6]): 190

SMILES: CCCn1c(=O)c2nc(C3CC4CC3C3OC43)[nH]c2n(CCC)c1=O (stereo unspecified)
Ratio Ki (Homo sapiens [6]): 400

Second part, the compound after the results:

solubility [2]: > 20 µM
SMILES: Cn1c(=O)c2[nH]c(-c3ccc(S(=O)(=O)O)cc3)nc2n(C)c1=O

Ratio Ki (Homo sapiens [4]): > 400 | Ratio Ki (Homo sapiens [5]): 160
SMILES: CCCCn1c(=O)c2c(ncn2[C@@H]2O[C@H](C(=O)NC)[C@@H](O)[C@H]2O)n(CCCC)c1=O

Ratio (Homo sapiens [7]): 10
SMILES: CCCn1cnc2c1c(=O)n(C)c(=O)n2C

IC50 [8]: 100 µM | pKi [9]: 4 | pIC50 [10]: < 4 | pEC50 [11]: < 4 | pIC50 [12]: 4 | pKi [13]: < 4 | Ki (Guanine deaminase): 10 µM | pIC50 [14]: <= 4.1 | IC50 [15]: 7.94 µM | IC50 [16]: 92 µM | IC50 [17]: 360 µM
SMILES: Cn1c(=O)c2c(ncn2C)n(C)c1=O [CAFFEINE]
